Test results reported in US20160281089A1, “PREVENTION OF VIRAL INFECTIVITY” (priority 2005, published 2016).

Key:
[1] = tested on: HIV virions; experiment: Infectivity of ODN-pre-incubated HIV virions in C81-66/45 cells; format: cell-based
Protocol: As a next step we investigated the antiviral effect of ODNs by testing the infectivity of treated virions in cell culture studies. We used ODN A, ODN T, as PPT and ODN CO. 2×10^5 C81-66/45 cells were infected with virions pre-incubated with different ODNs at 0.01 MOI for 1, 2 or 4 hours prior to infection. RNA was extracted from infected cells and HIV replication was analysed by real-time PCR 3 days post-infection.
To test the specificity of suppression of viral replication, the effect of ODN A on the infectivity of virions was compared with control ODNs. Virions were pre-treated with the ODNs and HIV replication in infected cells was analysed by real-time PCR, 5 days (FIG. 6A) or 20 days post-infection (FIG. 6B) and by measuring p24 production in the supernatant of the infected cells (FIG. 6C).
(A) HIV virions were incubated with 0.5 μM of ODNs for 1, 2 or 4 hours. C81-66/45 cells were infected with pre-incubated virions, at 0.01 MOI. RNA was extracted from infected cells and HIV replication was analysed by real-time PCR, 3 days post-infection (p.i.).
(B) The same experiment as in (A) was performed with ODN T, ODN CO, asPPT and ODN A pre-treated virions.
(D) C81-66145 cells were infected with virions pre-incubated with 0.5 or 5 μM of ODNs for 4 h, at an MOI of 1. RNA was extracted from infected cells and HIV replication was analysed by real-time PCR, 3 days post-infection.
(E) C81-66/45 cells were infected with virions pre-incubated with ODN A and ODN Sc for 4 h, at an MOI of 0.01. RNA was extracted from infected cells and HIV replication was analysed by real-time PCR, 1 h and 24 h post-infection. (F) The same experiment as in (E) was performed except for using ODN T, ODN B and ODN A, 1 hour post-infection.
C81-66/45 cells were infected with virions pre-incubated with ODN A, ODN T, ODN CO or as PPT for 4 h, at MOI of 0.01. RNA was extracted from infected cells and HIV replication was analysed by real-time PCR, 5 days p.i. (A), and 20 days p.i. (B); by measuring p24 production in the medium of the infected cells (C) or by RT-PCR, 11 days p.i. (D).

[2] = tested on: SFFV; experiment: Early i.v. therapy 2, 6 and 10 hours after SFFV infection of mice; format: in vivo; settings: i.v. treatment 2, 6 and 10 hours after infection; for establishment of SFFV infection (PCR of blood samples): whole period tested
Protocol: In another experimental setting we assessed the effect of an i.v. therapy early after infection. We infected mice with SFFV and treated them 2, 6, and 10 hours later with ODN M, asPPT or PBS.
c. Mice infected with SFFV (4×10^2 FFU) i.v. received triple-treatments with ODNs at 2, 6 and 10 hours post-infection. Real-time RT-PCR analysis (graph) and RT-PCR (gel analysis) was performed with RNA from plasma beginning at day 5 and at the days indicated.

[3] = tested on: HIV virions; experiment: ODN-mediated cleavage of viral RNA in intact HIV virions (real-time PCR, RT-PCR, agarose gel); format: biochemical; settings: 0.5 μM ODN, 6 hours; for amount of undigested viral RNA (real-time PCR, primers covering PPT region): intact HIV virions, RPMI medium
[4] = biological target: T1, RT/RNaseH (Human immunodeficiency virus type 1 group M subtype B, UniProt P04585); settings: high concentrations; previously shown (ref. 12); cited from earlier work
[5] = tested on: FUGW virus; experiment: Intravaginal treatment of FUGW virus with ODN A, lavage, real-time PCR; format: in vivo, C57BL/6 mice; settings: 25 μM ODN, 4 h in the vagina
From the text: In order to analyse the efficiency of the ODN A in the vagina, we used a recombinant retrovirus vector (FUGW) and placed the virus with and without ODN A into the vagina. We recover the virus by lavage and tested the RNA copies by real-time PCR. […] Two different virus concentration were used. The effect can be approved due by adaptation to mucosal condition of the vagina.
The FUGW virus was used, which is a recombinant retrovirus on the basis of HIV but with safety properties. It contains a PPT identical to HIV. The virus was prepared as described (Lois C., Hong E. J., Pease S., Brown E. J. and Baltimore D. (2002). “Germline Transmission and Tissue-Specific Expression of Transgenes Delivered by Lentiviral Vectors”, Science 295, 868-872).
The incubation was followed by a lavage of the vagina. Then lavage samples from the vagina were collected for RNA extraction using QIAamp viral RNA kit. RNA were eluted in 30 μl elution buffer. For reverse transcription, 2 μl RNA were used in 12.5 μl volume and 3 μl of the cDNA were used for real time PCR. Virus reduction is dependent on the ratio of ODN A to virus titer and the reduction is 2 fold for 10^4 IU.

[6] = biological target: T1, RT/RNaseH; experiment: Primer extension assay on synthetic RNA2; format: biochemical, HIV-1; set-up: the HIV RT/RNase H is a heterodimer of p66 and p51 with and without RNase H; settings: synthetic RNA2, FIG. 2B
From the text: To test whether an ODN-mediated activity would preferentially occur at the PPT, we analysed ODNs targeted to the extended PPT (ODN A) or to a region outside of the PPT (ODN CO and an external antisense oligodeoxynucleotide asEXT) in vitro. We used RNA2, which contains the PPT and the binding sites for ODN A, asEXT and ODN CO. […] Indeed, in the reaction mixture containing both ODN A and asEXT primers, extension products, predominantly synthesized by the RT/RNaseH, started with ODN A and not asEXT (FIG. 2B). […] Thus, the ability of the ODN A to mediate RT/RNaseH-dependent cleavage of the viral RNA is PPT-dependent.
(A) Cleavage assay. 10 nM of in vitro transcribed 5′-labeled RNA was hybridized with 10, 100 and 1000 nM of ODN A and incubated in the presence of RT/RNaseH. The cleavage products were analyzed by denaturing PAGE as described in Materials and methods. (B). Primer extension assay. Synthetic RNA2 was hybridized with ODN A, antisense primer (asEXT) or both primers combined, and the primer extension was performed as described in Materials and Methods. Elongation products were analysed by 8 M urea/10% PAGE. (C) Cleavage assay. RNA/ODN hybrids, obtained using 10 nM of RNA2 and 10 nM of ODN A, asPPT or ODN CO were incubated with RT/RNaseH and cleavage products were analyzed by denaturing PAGE as described in Materials and methods. […]

[7] = virions pre-incubated 4 hours with 0.5 μM ODN, 0.01 MOI, 3 days post-infection

| Sequence | HIV replication in infected cells (real-time PCR) [1, 7] | health of infected mice (spleen enlargement in mock-treated) [2] | establishment of SFFV infection (PCR of blood samples) [2] | amount of undigested viral RNA (real-time PCR, primers covering PPT region) [3] | concentration at which ODN inhibits the RT/RNaseH activity in vitro [4] | HIV replication in infected cells (real-time PCR) ([1]; ODN-pre-treated virions, MOI of 1, 3 days post-infection) | binding/uptake of pre-treated virions by host cells ([1]; pre-incubation 4 hours, HIV RNA in infected cells 1 hour post-infection) | time without sign of virus replication after infection ([1]; virions pre-incubated 4 h, MOI of 0.01, real-time PCR, p24, RT-PCR, syncytia) | viral RNA in infected cells ([1]; virions pre-treated 4 h, 24 hours after infection) | virion uptake by cells, less efficient compared to ODN Sc-treated virions ([1]; virions pre-treated 4 hours, HIV RNA in infected cells 1 hour post-infection) | reduction of virus RNA copies / titer recovered by lavage [5] | reduction of virus RNA copies / titer recovered by lavage ([5]; listed as ODNA A) | virus reduction ([5]; 10^4 IU FUGW-virus) | cDNA production in virions (PCR with ODN A- and viral cDNA-specific primers) ([3]; virions containing monodeoxynucleotides) | total viral RNA by agarose gel electrophoresis ([3]; intact virions, compared to control ODNs) | primer extension by RT/RNaseH compared to asEXT [6] |
| --- | --- | --- | --- | --- | --- | --- | --- | --- | --- | --- | --- | --- | --- | --- | --- | --- |
| CCCTTCCAGTCCCCCCTTTTCTTTT (chemistry not given here) [asPPT, single-stranded antisense PPT of HIV, lacks the passenger strand and the linker] | low but detectable levels | healthy | prevented the establishment of the SFFV-infection | less efficient cleavage of the viral RNA | – | – | – | – | – | – | – | – | – | – | – | – |
| TCTTTTTGGGGGGTTTGTTTGTTTTTTCTTTCATTCCCCCCTTTTTCT (chemistry not given here) [ODN M, 22-mer antisense and 22-mer second strand connected by T4, targeted to extended PPT of SFFV] | – | healthy | prevented the establishment of the SFFV-infection | – | – | – | – | – | – | – | – | – | – | – | – | – |
| TTTTCTTTTGGGGGGTTTGGTTGGGTTTTCCCTTCCAGTCCCCCCTTTTCTTTT (phosphorothioate linkages, further chemistry not given here) [ODN A, 25 mer antisense and 25 mer passenger strand connected by T4, phosphorothioated at each end and in linker, targeted to extended PPT of HIV-1] | complete suppression of viral replication | – | – | significant decrease in the amount of amplification product | ≥ 1 µM | only partial suppression of HIV replication | did not significantly interfere with binding | at least 20 days | completely degraded | 14% | twofold | factor of two | 2 fold | led to cDNA production starting with ODN A | significant reduction of the viral RNA | more efficiently |
